The test in a line: Kinetic constant for galactosyltransferase inhibition was determined.

Molecules are shown by their SMILES.

Drawing on BindingDB's records for doi:10.1021/jm00391a020 (1987), this text covers Ki for two compounds.

For the compound `O=c1ccn(C2O[C@H](COP(=O)(O)OP(=O)(O)C3O[C@H](CO)[C@@H](O)[C@H](O)[C@H]3O)[C@@H](O)[C@H]2O)c(=O)[nH]1` (some centres not stated), the Ki (commonly the dissociation constant of the complex between target and ligand, obtained from inhibition or displacement) was 165 µM.
The value for `O=c1ccn([C@@H]2O[C@H](COP(=O)(O)OP(=O)(O)OP(=O)(O)O)[C@@H](O)[C@H]2O)c(=O)[nH]1` [uridine 5'-(tetrahydrogen triphosphate)] was 128 µM.
